Results reported in PubChem BioAssay AID651630 (Sanford-Burnham Center for Chemical Genomics, 2012).
pIC50: −log10 of the molar value. Activity calls are given as the source filed them.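 Rule for the calls: active = lipid-stain IC50 at or below a set limit, with nuclear-stain toxicity IC50 at least five times higher; inactive = the rest.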

How the values were obtained:
TAG = assay: triacylglycerol accumulation inhibitor potency, dose response, cell-based, panel, Nile Red and DAPI fluorescence, H9c2 (AID 651630); conditions: H9c2 cells, Nile Red TAG fluorescence, oleic acid;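 note: cells exposed to compound overnight before fixation and staining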
DAPI = assay: as above; conditions: H9c2 cells, DAPI nuclear fluorescence (cytotoxicity counter-readout), oleic acid

IC50 (TAG; mean of runs) | pIC50 (TAG; run 1) | pIC50 (TAG; run 2) | pIC50 (TAG; mean of runs) | Compound | IC50 cytotoxicity (DAPI nuclear signal decrease) (DAPI; mean of runs) | IC50 cytotoxicity (DAPI nuclear signal decrease) (DAPI; run 1) | IC50 cytotoxicity (DAPI nuclear signal decrease) (DAPI; run 2)
22.4 µM (inactive) | 4.65 | 4.65 |  | C=CCN1C(=O)/C(=C2\SC(N3CCOCC3)=NC2=O)c2cc(Br)ccc21 | > 25 µM (inactive) | > 25 µM | > 25 µM
> 25 µM (inactive) | < 4.60 | < 4.60 |  | Cc1cccc2cc(C#N)c(SCC(=O)NNC(=O)Cc3ccccc3)nc12 | > 25 µM (inactive) | > 25 µM | > 25 µM
 | 5.06 | 4.88 | 4.96 | Nc1ccccc1C#Cc1ccccc1 | > 25 µM (inactive) | > 25 µM | > 25 µM
16.5 µM (inactive) | 4.82 | 4.75 |  | COc1ccc(CC(=O)Nc2ccc(-c3ccc4nnc(C)n4n3)cc2)cc1OC | > 25 µM (inactive) | > 25 µM | > 25 µM
> 25 µM (inactive) | < 4.60 | < 4.60 |  | Cc1nn2c(N3CCN(C)CC3)c3c(nc2c1-c1ccccc1)CCCC3 | > 25 µM (inactive) | > 25 µM | > 25 µM
 | 4.75 | < 4.60 |  | CSc1cc(-c2ccccc2)n(Cc2c(Cl)cccc2Cl)c(=O)c1C#N | > 25 µM (inactive) | > 25 µM | > 25 µM
 | > 6.11 | < 4.60 |  | COc1ccccc1C1C2=C(COC2=O)Nc2cc3c(cc21)OCO3 (centres undefined) | > 25 µM (inactive) | > 25 µM | > 25 µM
 | 4.68 | < 4.60 |  | CC1(C(=O)NCc2ccccc2)Cc2c(-c3cccc(C(N)=O)c3)ccnc2O1 (centres undefined) | > 25 µM (inactive) | > 25 µM | > 25 µM
> 25 µM (inactive) | < 4.60 | < 4.60 |  | COc1cc2nc(NCCCN3CCN(C)CC3)n3nc(-c4ccccc4)nc3c2cc1OC | > 25 µM (inactive) | > 25 µM | > 25 µM
> 25 µM (inactive) | < 4.60 | < 4.60 |  | CCOC(=O)c1[nH]c(C)c(C(=O)Nc2ccccc2C)c1C | > 25 µM (inactive) | > 25 µM | > 25 µM
 | 4.95 | 4.88 | 4.91 | O=C(Nc1cc2c3c(c1)C1CCCC1CN3CC1CCCC21)c1ccc([N+](=O)[O-])cc1 (centres undefined) | > 25 µM (inactive) | > 25 µM | > 25 µM
> 25 µM (inactive) | < 4.60 | < 4.60 |  | COC(=O)C1=C(C)N(Cc2ccccc2)C(=NCc2cc(OC)c(OC)c(OC)c2)N[C@H]1c1ccc(Br)cc1 | > 25 µM (inactive) | > 25 µM | > 25 µM
 | 5.62 | 5.21 | 5.37 | CCCCN1C(=O)/C(=C/C=C2/C=Cc3ccccc3N2CC)SC1=S |  | > 25 µM | > 25 µM
 | 4.83 | 5.27 | 5.00 | COc1ccc2[nH]c3c(c2c1)CCN1C(=O)C(CC(=O)NCc2cccc(C(F)(F)F)c2)C[C@H](C(=O)N2CCCCC2)[C@@]31CCc1ccccc1 (some centres undefined) | > 25 µM (inactive) | > 25 µM | > 25 µM
15.6 µM (inactive) | 4.81 | 4.81 |  | Cc1cccc(-c2ccc3[nH]c4c(c3c2)CCN2C[C@@H]([C@H](C)OC(=O)Nc3ccccc3C)[C@@H](N(C)C(=O)Nc3ccccc3C)C[C@@H]42)c1 | > 25 µM (inactive) | > 25 µM | > 25 µM
 | 4.88 | 5.00 | 4.94 | COc1cc(/C=C/CN2CCC(C(=O)NC(c3ccc(F)cc3)c3ccc4ccccc4n3)CC2)ccc1OC(C)=O (centres undefined) | > 25 µM (inactive) | > 25 µM | > 25 µM

IC50 (TAG; mean of runs) | pIC50 (TAG; run 1) | pIC50 (TAG; run 2) | pIC50 (TAG; mean of runs) | Compound | IC50 cytotoxicity (DAPI nuclear signal decrease) (DAPI; mean of runs) | IC50 cytotoxicity (DAPI nuclear signal decrease) (DAPI; run 1) | IC50 cytotoxicity (DAPI nuclear signal decrease) (DAPI; run 2)
 | 4.87 | 5.06 | 4.95 | COc1ccccc1-c1cc(C(F)(F)F)nc(S(=O)(=O)CCCC(=O)NC(C)C)n1 | 18.4 µM (inactive) | 19.9 µM | 17 µM
16.3 µM (inactive) | 4.78 | 4.80 |  | Cc1cccc(N2CCN(C(=O)c3c(-c4ccccc4Cl)noc3C)CC2)c1C | > 25 µM (inactive) | > 25 µM | > 25 µM
 | 5.71 | 5.42 | 5.54 | CCCCCC(=C/c1ccccc1)/C=N/Nc1ccc(S(=O)(=O)N2CCOCC2)cc1[N+](=O)[O-] |  | > 25 µM | > 25 µM
> 25 µM (inactive) | < 4.60 | < 4.60 |  | NC(Cc1ccc(C(F)(F)F)cc1)c1csc(Nc2nncc3ccccc23)n1 (centres undefined) | 21.4 µM (inactive) | 21.5 µM | 21.3 µM
17.8 µM (inactive) | 4.80 | 4.71 |  | O=C(NCCCCCCCN1CCCCCCC1)C(C1CCCCC1)C1CCCCC1 | > 25 µM (inactive) | > 25 µM | > 25 µM
21.6 µM (inactive) | 4.65 | 4.68 |  | CCOC(=O)[C@H]1[C@H]2COc3ccc(C)cc3[C@@H]2N2C(=O)c3cc(Br)ccc3NC(=O)[C@@]12C | > 25 µM (inactive) | > 25 µM | > 25 µM
 | 5.05 | 5.04 | 5.04 | Cc1ccc(NC(=O)c2nc[nH]c2C(=O)NCCCCCCNC(=O)c2[nH]cnc2C(=O)Nc2ccc(C)cc2)cc1 | > 25 µM (inactive) | > 25 µM | > 25 µM
 | 5.56 | 5.32 | 5.42 | O=C(C[C@H]1C[C@H](C(=O)N2CCCCC2)[C@@]2(CCc3ccccc3)c3[nH]c4ccc(Cl)cc4c3CCN2C1=O)NCc1cccc(C(F)(F)F)c1 |  | > 25 µM | > 25 µM
 | 4.92 | 4.86 | 4.89 | COc1ccc(-c2nc(-c3ccccc3)c(-c3cc([N+](=O)[O-])ccc3C)[nH]2)cc1OC | > 25 µM (inactive) | > 25 µM | > 25 µM
 | 5.30 | 5.34 | 5.32 | CCCCSc1nc2ccc(Nc3nc(N4CCOCC4)nc(N4CCOCC4)n3)cc2s1 |  | > 25 µM | > 25 µM
 | 4.75 | < 4.60 |  | CCCCCc1ccc(-c2cn(Cc3ccc(C(=O)c4ccccc4)cc3)nn2)cc1 | > 25 µM (inactive) | > 25 µM | > 25 µM
 | 4.88 | 4.87 | 4.88 | CCC(C)(C)NC(=O)C(c1ccc(OC)cc1)N(Cc1cccs1)C(=O)CCC(=O)Nc1cc(C)on1 (centres undefined) | > 25 µM (inactive) | > 25 µM | > 25 µM
> 25 µM (inactive) | < 4.60 | < 4.60 |  | Oc1cccc2cc(-c3ccncc3)cnc12 | > 25 µM (inactive) | > 25 µM | > 25 µM
 | 4.70 | < 4.60 |  | N#CCC(=O)N/N=C/c1cn(Cc2ccc(Cl)c(Cl)c2)c2ccccc12 | > 25 µM (inactive) | > 25 µM | > 25 µM
 | 5.07 | 5.04 | 5.05 | Cc1ccc(S(=O)(=O)NC2=C(N3CCN(c4ccccc4F)CC3)C(=O)c3ccccc3C2=O)cc1 | > 25 µM (inactive) | > 25 µM | > 25 µM
 | 4.98 | 5.02 | 5.00 | CCN(C[C@H]1N[C@@](CC)(C(=O)OC)[C@H]2C(=O)N(Cc3ccccc3)C(=O)[C@@H]12)S(=O)(=O)c1ccc(C(C)(C)C)cc1 | > 25 µM (inactive) | > 25 µM | > 25 µM

Compound | IC50 (TAG; mean of runs) | pIC50 (TAG; run 1) | pIC50 (TAG; run 2) | pIC50 (TAG; mean of runs) | IC50 cytotoxicity (DAPI nuclear signal decrease) (DAPI; mean of runs) | IC50 cytotoxicity (DAPI nuclear signal decrease) (DAPI; run 1) | IC50 cytotoxicity (DAPI nuclear signal decrease) (DAPI; run 2)
COC(=O)C1=C(c2ccc(OCc3ccccc3)cc2)C[C@@H]2CC[C@H]1N2C(=O)NCc1ccc(C(C)(C)C)cc1 | 16.7 µM (inactive) | 4.85 | 4.72 |  | > 25 µM (inactive) | > 25 µM | > 25 µM
